From article PMC7450630 (ACS Omega, 2020)

Target: PD-L1 (Homo sapiens, UniProt Q9NZQ7)
Assay: HTRF PD-1/PD-L1 binding assay

Chain of PD-L1 (Q15116 25-288): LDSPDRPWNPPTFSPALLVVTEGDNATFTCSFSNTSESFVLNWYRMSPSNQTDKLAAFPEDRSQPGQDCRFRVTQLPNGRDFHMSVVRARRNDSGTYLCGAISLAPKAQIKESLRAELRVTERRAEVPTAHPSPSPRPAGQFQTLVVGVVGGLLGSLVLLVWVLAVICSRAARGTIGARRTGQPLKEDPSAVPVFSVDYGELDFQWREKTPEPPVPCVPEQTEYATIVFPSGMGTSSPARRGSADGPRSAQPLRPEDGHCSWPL
Chain of PD-L1 (Q9NZQ7 19-290): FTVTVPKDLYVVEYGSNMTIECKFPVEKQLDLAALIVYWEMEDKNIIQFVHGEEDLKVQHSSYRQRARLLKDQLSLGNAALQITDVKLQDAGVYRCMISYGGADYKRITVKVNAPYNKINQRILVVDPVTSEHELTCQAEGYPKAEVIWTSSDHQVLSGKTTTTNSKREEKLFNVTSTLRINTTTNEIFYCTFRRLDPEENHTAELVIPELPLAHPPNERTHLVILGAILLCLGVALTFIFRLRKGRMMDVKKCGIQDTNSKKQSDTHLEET

Row | IC50 [µM] | SMILES
1 | 14.1 | Cc1c(COc2ccc(CN3CCN(C)CC3)c(OCc3cn(-c4cccc(C#N)c4)nn3)c2)cccc1-c1ccccc1 [8a, 3-(4-((5-((2-Methylbiphenyl-3-yl)methoxy)-2-((4-methylpiperazin-1yl)methyl)phenoxy)methyl)-1H-1,2,3-triazol-1-yl)benzonitrile]
2 | 8.52 | Cc1c(COc2ccc(CN3CCNCC3)c(OCc3cn(-c4cccc(C#N)c4)nn3)c2)cccc1-c1ccccc1 [compound 7, 3-(4-((5-((2-Methylbiphenyl-3-yl)methoxy)-2-(piperazin-1-ylmethyl)phenoxy)methyl)-1H-1,2,3-triazol-1-yl)benzonitrile]
